Assay results from ChEMBL document CHEMBL2331103, “Synthesis of a novel series of 2-alkylthio substituted naphthoquinones as potent acyl-CoA: cholesterol acyltransferase (ACAT) inhibitors” (Eur J Med Chem, 2013).

biological target: T1, Sterol O-acyltransferase 1 (Homo sapiens, UniProt P35610); test: Inhibition of human macrophage ACAT expressed in human HepG2 cells using [14C]oleoyl-CoA as substrate incubated for 20 mins prior to substrate addition measured after 25 mins by liquid scintillation counting analysis; assay type: cell-based
T1 sequence (P35610 whole entry): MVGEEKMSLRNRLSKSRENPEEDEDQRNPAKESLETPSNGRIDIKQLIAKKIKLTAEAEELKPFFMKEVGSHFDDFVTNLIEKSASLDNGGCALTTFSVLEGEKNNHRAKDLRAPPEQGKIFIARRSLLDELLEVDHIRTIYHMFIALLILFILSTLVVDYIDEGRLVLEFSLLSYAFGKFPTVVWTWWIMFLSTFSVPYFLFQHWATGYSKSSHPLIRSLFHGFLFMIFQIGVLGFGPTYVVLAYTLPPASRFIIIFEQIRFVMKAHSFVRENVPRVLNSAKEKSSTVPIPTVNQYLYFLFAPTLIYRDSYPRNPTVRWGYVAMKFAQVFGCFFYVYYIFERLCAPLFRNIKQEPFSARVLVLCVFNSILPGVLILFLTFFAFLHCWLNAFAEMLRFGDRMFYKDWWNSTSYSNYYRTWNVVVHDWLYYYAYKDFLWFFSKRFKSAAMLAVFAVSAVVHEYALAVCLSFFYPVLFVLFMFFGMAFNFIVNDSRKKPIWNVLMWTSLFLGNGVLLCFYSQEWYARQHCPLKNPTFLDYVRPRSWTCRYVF

Question: With `CCCCCCCCCCCSC1=CC(=O)c2ccccc2C1=O` as the compound, how does the IC50 read?
Answer: The IC50 was 8.67 µM.

Question: `CCCCCCCCCCCCCCC[S+]([O-])C1=CC(=O)c2ccccc2C1=O` (stereo not given) was tested. Which IC50 did it give?
Answer: Its IC50 is 56.6 µM.

Question: Which IC50 does the source give for `CCS(=O)(=O)C1=CC(=O)c2c(OC)ccc(OC)c2C1=O` here?
Answer: Its IC50 is over 100 µM.

Question: `CCCS(=O)(=O)C1=CC(=O)c2c(OC)ccc(OC)c2C1=O` was tested. Which IC50 did it give?
Answer: Its IC50 is over 100 µM.

Question: For `CCCCCCCCCCCS(=O)(=O)C1=CC(=O)c2c(OC)ccc(OC)c2C1=O`, which IC50 is on record?
Answer: Its IC50 is 3.4 µM.

Question: `CCCCCCCCCCCCCCCS(=O)(=O)C1=CC(=O)c2c(OC)ccc(OC)c2C1=O` was tested. Which IC50 did it give?
Answer: The IC50 was 5.8 µM.

Question: For `CSC1=CC(=O)c2ccccc2C1=O`, which IC50 is on record?
Answer: Its IC50 is 2.82 µM.

Question: How did the IC50 turn out when `CCCSC1=CC(=O)c2ccccc2C1=O` was run?
Answer: The IC50 was 5.08 µM.

Question: With `CCCCSC1=CC(=O)c2ccccc2C1=O` as the compound, how does the IC50 read?
Answer: Its IC50 is 7.87 µM.

Question: For `CCCCCSC1=CC(=O)c2ccccc2C1=O`, which IC50 is on record?
Answer: The IC50 was 8.19 µM.

Question: `CCCCCCCCSC1=CC(=O)c2ccccc2C1=O` was tested. Which IC50 did it give?
Answer: The IC50 was 6 µM.

Question: Which IC50 does the source give for `CCCCCCCCCSC1=CC(=O)c2ccccc2C1=O` here?
Answer: Its IC50 is 1.63 µM.

Question: With `CCCCCCCCCCCCSC1=CC(=O)c2ccccc2C1=O` as the compound, how does the IC50 read?
Answer: Its IC50 is 1.66 µM.

Question: For `CCCCCCCCCCCCCCCSC1=CC(=O)c2ccccc2C1=O`, which IC50 is on record?
Answer: Its IC50 is 4.13 µM.

Question: `CCCCCCCCCCCCCCCCCCSC1=CC(=O)c2ccccc2C1=O` was tested. Which IC50 did it give?
Answer: Its IC50 is 1.45 µM.

Question: With `C[S+]([O-])C1=CC(=O)c2ccccc2C1=O` (stereo not given) as the compound, how does the IC50 read?
Answer: Its IC50 is 5.66 µM.

Question: How did the IC50 turn out when `CCCCCCCCC[S+]([O-])C1=CC(=O)c2ccccc2C1=O` (stereo not given) was run?
Answer: The IC50 was 5.47 µM.

Question: Which IC50 does the source give for `COc1ccc(OC)c2c1C(=O)C=C([S+](C)[O-])C2=O` (stereo not given) here?
Answer: The IC50 was over 100 µM.

Question: Which IC50 does the source give for `CCCCCCCCCC[S+]([O-])C1=CC(=O)c2c(OC)ccc(OC)c2C1=O` (stereo not given) here?
Answer: Its IC50 is 8.4 µM.

Question: How did the IC50 turn out when `CCCCCCCCCCC[S+]([O-])C1=CC(=O)c2c(OC)ccc(OC)c2C1=O` (stereo not given) was run?
Answer: Its IC50 is 1.1 µM.

Question: How did the IC50 turn out when `CCCCCCCCCCCC[S+]([O-])C1=CC(=O)c2c(OC)ccc(OC)c2C1=O` (stereo not given) was run?
Answer: Its IC50 is 2.4 µM.

Question: For `CCCCCCCCCCCCCCCCCC[S+]([O-])C1=CC(=O)c2c(OC)ccc(OC)c2C1=O` (stereo not given), which IC50 is on record?
Answer: Its IC50 is over 100 µM.

Question: How did the IC50 turn out when `COc1ccc(OC)c2c1C(=O)C=C(S(C)(=O)=O)C2=O` was run?
Answer: Its IC50 is over 100 µM.

Question: `CCSC1=CC(=O)c2ccccc2C1=O` was tested. Which IC50 did it give?
Answer: Its IC50 is 7.51 µM.

Question: With `CC(C)CNC(=O)/C=C/C=C/CCCC/C=C/c1ccc2c(c1)OCO2` [RETROFRACTAMIDE B] as the compound, how does the IC50 read?
Answer: The IC50 was 3.7 µM.
